From patent US6544727B1, “Methods and devices for the removal of psoralens from blood products” (Cerus Corporation, priority 1995, dated 2003)
“Also recorded” adds a separate entry of the source. Like-named read-outs stand apart in the source and are kept apart here.

Key:
R17 bacteriophage [1] = test: R17 bacteriophage inactivation at constant concentration, varying doses of UV light; format: cell-based; settings: 1.0-3.0 J/cm^2, FIGS. 11-17
Protocol: Compounds of the present invention were also tested at a constant concentration for varying doses of UV light. Three sets of 1.5 mL tubes were prepared containing 0.6mL aliquots of R17 in DMEM (prepared as described above). The compound tested was added at the desired concentration and the samples were vortexed. The samples were then irradiated at intervals of 1.0 J/cm^2, until 3.0 J/cm^2 was reached. Between each 1.0 J/cm^2 interval, 100 μL was removed from each sample and placed in the first corresponding dilution tube, then five sequential dilutions were performed for each compound tested, at all 3 irradiation doses, as described above in this example.
Then 50 μL of Hfr 3000 bacteria was added to each tube, 3 mL of top agar was added and the tube contents were vortexed The contents of each tube was poured into its own LB plate and the plates were incubated overnight at 37° C. Plaques were counted by visual inspection the following morning.

HIV-1 = settings: 1 minute irradiation
Protocol: As in the R17 assay, small aliquots of the compounds listed in TABLES 10 and 11, below, at the concentrations listed in the table, were added to stock HIV-1 to a total of 0.5 mL. The stock HIV (10^5−10^7 plaque forming units/mL) was in DMEM15% FBS. […] Controls included HIV-1 stock only, HIV-1 plus UVA only, and HIV-1 plus the highest concentration of each psoralen tested, with no UVA. Post irradiation, all samples were store frozen at −70° C. until assayed for infectivity by a microtiter plaque assay. Aliquots for measurement of residual HIV infectivity in the samples treated with a compound of the present invention were withdrawn and cultured.
Residual HIV infectivity was assayed using an MT-2 infectivity assay. […] The assay medium was 85% DMEM (with a high glucose concentration) containing 100 μg of streptomycin, 100 U of penicillin, 50 μg of gentamicin, and 1 μg of amphotericin B per mL, 15% FBS and 2 μg of Polybrene (Sigma Chemical Co., St. Louis, Mo.) per mL. Test and control samples from the inactivation procedure were diluted in 50% assay medium and 50% normal human pooled plasma The samples were serially diluted directly in 96-well plates (Corning Glass Works, Corning, N.Y.). The plates were mixed on an oscillatory shaker for 30 seconds and incubated at 37° C. in a 5% CO2 atmosphere for 1 to 18 hours. […] After an additional 1 hour of incubation at 37° C. in 5% CO2, 0.075 mL of assay medium containing 1.6% SeaPlaque agarose (FMC Bioproducts, Rockland, Me.) and prewarmed to 38.5° C. was added to each well. The plates were kept at 37° C. for a few minutes until several plates had accumulated and then centrifuged in plate carriers at 600×g for 20 minutes in a centrifuge precooled to 10° C. In the centrifuge, cell monolayers formed prior to gelling of the agarose layer. The plates were incubated for 5 days at 37° C. in 5% CO2 and stained by the addition of 0.05 mL of 50 μg/mL propidium iodide (Sigma Chemical Co.) in phosphate-buffered saline (pH 7.4) to each well. After 24 to 48 hours, the red fluorescence-stained microplaques were visualized by placing the plates on an 8,000 μW/cm^2304 nm UV light box (Fotodyne, Inc., New Berlin, Wis.). The plaques were counted at a magnification of x20 to x25 through a stereomicroscope.

R17 bacteriophage [2] = test: R17 bacteriophage inactivation assay, varying compound concentration; format: cell-based
Protocol: An r-17 bacteriophage assay was used in this example to predict pathogen inactivation efficiency and to determine nucleic acid binding of the photoreactive binding compounds of the present invention. In the r-17 assay, the bacteriophage was placed in a solution with each compound tested and was then irradiated. The ability of the phage to subsequently infect bacteria and inhibit their growth was measured. The bacteriophage was selected for its relatively accessible nucleic acid such that the culture growth inhibition would accurately reflect nucleic acid damage by the test compounds. The bacteriophage assay for nucleic acid binding to test compounds offers a safe and inexpensive procedure to identify compounds likely to display efficient pathogen inactivation.
The R17 was grown up in Hfr 3000 bacteria, approximate titer 5×10^11. (R17 and Hfr 3000 were obtained from American Tissue Culture Collection (ATCC), Washington, D.C.) The R17 phage stock was added to a solution of 15% fetal bovine serum in Dulbecco's Modified Eagles Medium (DMEM) to a final phage concentration of 10^9/mL. An aliquot (0.5 mL) was transferred to a 1.5 mL snap-top polyethylene tube. An aliquot (0.004-0.040 mL) of the test compound stock solution prepared in water, ethanol or dimethylsulfoxide at 0.80-8.0 mM was added to the tube. Compounds were tested at concentrations between 4 μM and 320 μM. […] The tubes were placed in a light device as described in EXAMPLE 1 and irradiated for between 1 and 10 minutes. Sterile 13 mL dilution tubes were prepared; each test compound required one tube with 0.4 mL of Luria broth (LB) and five tubes containing 0.5 mL of LB broth. To make the dilutions, a 0.100 mL aliquot of the irradiated solution of phage and test compound was added to the first dilution tube of 0.4 mL of media then 0.020 mL of this solution was added to the second tube of 0.5 mL medium (1:25). The second solution was then diluted serially (1:25) into the remaining tubes. To each diluted sample was added 0.050 mL of Hfr 3000 bacteria cultured overnight and 3 mL of molten LB top agar and the mixed materials were poured onto LB broth plates. After the top agar hardened, the plates were incubated at 37° C. overnight. The plaque forming units were then counted the following morning and the titer of the phage remaining after phototreatment was calculated based on the dilution factors.
The following controls were run: the “phage only” in which phage was not treated with test compound and not irradiated (listed as “starting titer” in the tables below); the “UV only” in which the phage was irradiated in the absence of test compound; and the “dark” control in which the phage/test compound solution was not irradiated before it was diluted and plated.

[3] = test system: Salmonella tester strain TA100
Protocol: (§1) In this example the compounds of the present invention are tested for their dark mutagenicity using an Ames assay. The procedures used for the Salmonella mutagenicity test as described in detail by Maron and Ames were followed exactly. Maron, D. M. and B. N. Ames, Mutation Research 113: 173 ( 1983). A brief description for each procedure is given here. The tester strains TA97a, TA98, TA100, TA102, TA1537 and TA1538 were obtained from Dr. Ames. TA97a, TA98, TA1537 and TA1538 are frameshift tester strains. TA100 and TA102 are base-substitution tester strains. Upon receipt each strain was cultured under a variety of conditions to confirm the genotypes specific to the strains.
(§2) The first tests done with the strains were to determine the range of spontaneous reversion for each of the strains. With each mutagenicity experiment the spontaneous reversion of the tester strains to histidine independence was measured and expressed as the number of spontaneous revertants per plate. This served as the background controls.
(§3) For all experiments, the pre-incubation procedure was used. In this procedure one vial of each tester strain was thawed and 20 μL of this culture was added to 6 mL of Oxoid Nutrient Broth #2. This solution was allowed to shake for 10 hours at 37° C. In the pre-incubation procedure, 0.1 mL of this overnight culture was added to each of the required number of sterile test tubes. To half of the tubes 0.5 mL of a 10% S-9 solution containing Aroclor 1254 induced rat liver extract (Molecular Toxicology Inc., Annapolis, Md.), and MgCl2, KCl, glucose-6-phosphate, NADP, and sodium phosphate buffer (Sigma, St. Louis, Mo.) were added. To the other half of the tubes 0.5 mL of 0.2M sodium phospate buffer, pH 7.4, was used in place of the S-9 mixture (the—S9samples). Finally 0.1 mL of the test solution containing either 0, 0.1, 0.5, 1, 5, 10, 50, 100, 250, or 500 μg/mL of the test compound was added. The 0.7 mL mixture was vortexed and then pre-incubated while shaking for 20 minutes at 37° C. After shaking, 2 mL of molten top agar supplemented with histidine and biotin were added to the 0.7 mL mixture and immediately poured onto a minimal glucose agar plate (volume of base agar was 20 mL). The top agar was allowed 30 minutes to solidify and then the plates were inverted and incubated for 44 hours at 37° C. After incubation the number of revertant colonies on each plate were counted. […] (“n” represents the number of replicates performed for each data point.)

[4] = test system: Salmonella tester strain TA1538
Protocol: as §1, §2, §3

[5] = test system: Salmonella typhimurium tester strains; test: Ames Salmonella dark mutagenicity test, overall assessment; format: cell-based; settings: two-fold or greater increase in revertants above background and dose dependence
Protocol: A brief description for each procedure is given here. […] TA97a, TA98, TA1537 and TA1538 are frameshift tester strains. TA100 and TA102 are base-substitution tester strains.
This served as the background controls.
For all experiments, the pre-incubation procedure was used.

[6] = 16 μM, starting titer approximately 5.4 logs (Table 11)
[7] = 32 μM, starting titer approximately 5.4 logs (Table 11)
[8] = 64 μM, starting titer approximately 5.4 logs (Table 11)
[9] = 64 μM, starting titer approximately 5 logs (Table 10)
[10] = Experiment 1, 32 μM compound, 1′ uva
[11] = Experiment 1, 32 μM compound, 10′ uva
[12] = Experiment 1, compound only (32 μM), no uva
[13] = Experiment 2, 3.2 μM compound, 1′ uva
[14] = Experiment 2, 3.2 μM compound, 10′ uva
[15] = Experiment 2, compound only (3.2 μM), no uva
[16] = Experiment 3, 4 μM compound, 1′ uva
[17] = Experiment 3, 8 μM compound, 1′ uva
[18] = Experiment 3, 16 μM compound, 1′ uva
[19] = Experiment 3, compound only (16 μM), no uva

## Cc1oc2c(C)c3oc(=O)cc(C)c3cc2c1CNCCCNCCCN [Compound 12, 4′-(9-amino-2,6-diaza)nonyl-4,5′,8-trimethylpsoralen]
R17 bacteriophage [1]
  R17 inactivation efficiency compared with AMT (in words): more efficient at inactivating R17 than was AMT
HIV-1; [6]
  HIV Log Kill: 0.4 log
HIV-1; [7]
  HIV Log Kill: 0.8 log
HIV-1; [8]
  HIV Log Kill: 1.3 log

## Cc1oc2c(C)c3oc(=O)cc(C)c3cc2c1CNCCN [Compound 1, 4′-(4-amino-2-aza)butyl-4,5′,8-trimethylpsoralen]
HIV-1; [9]
  HIV Log Kill: 2.1 log
R17 bacteriophage [2]; 8 μM, starting titer approx. 7.2 logs, 1 minute irradiation (Table 7)
  R17 Log Kill: 1.7 log
R17 bacteriophage [2]; 16 μM, starting titer approx. 7.2 logs, 1 minute irradiation (Table 7)
  R17 Log Kill: 2.8 log
R17 bacteriophage [2]; 32 μM, starting titer approx. 7.2 logs, 1 minute irradiation (Table 7)
  R17 Log Kill: 5.3 log
R17 bacteriophage [2]; 32 μM, starting titer approx. 7.5 logs, 1 minute irradiation
  R17 log kill (32 μM): >6.6 log
R17 bacteriophage [2]; [10]
  Log Titer: <1
  Logs Killed: >6.7 logs
R17 bacteriophage [2]; [11]
  Log Titer: <1
  Logs Killed: >6.7 logs
R17 bacteriophage [2]; [12]
  Log Titer: 7.6
  Logs Killed: 0.1 logs
R17 bacteriophage [2]; [13]
  Log Titer: 6.9
  Logs Killed: 0.9 logs
R17 bacteriophage [2]; [14]
  Log Titer: 6.1
  Logs Killed: 1.7 logs
R17 bacteriophage [2]; [15]
  Log Titer: 7.7
  Logs Killed: 0.1 logs
R17 bacteriophage [2]; [16]
  Log Titer: 6.3
  Logs Killed: 1.0 logs
R17 bacteriophage [2]; [17]
  Log Titer: 5.6
  Logs Killed: 1.7 logs
R17 bacteriophage [2]; [18]
  Log Titer: 3.9
  Logs Killed: 3.4 logs
R17 bacteriophage [2]; [19]
  Log Titer: 7.3
  Logs Killed: 0 logs
R17 bacteriophage [2]; varying concentration, Tables 6-9, FIGS. 6-10
  R17 inactivation efficiency compared with AMT or 8-MOP (in words): much higher R17 inactivation efficiency than does 8-MOP
[3]; TA100 + S9, 5 μg/plate
  revertant colonies per plate: −24
[3]; TA100 + S9, 10 μg/plate
  revertant colonies per plate: −22
[3]; TA100 − S9, 5 μg/plate
  revertant colonies per plate: 292
[3]; TA100 − S9, 10 μg/plate
  revertant colonies per plate: 337
[4]; TA1538 + S9, 5 μg/plate
  revertant colonies per plate: 21
[4]; TA1538 + S9, 10 μg/plate
  revertant colonies per plate: 22
[4]; TA1538 − S9, 5 μg/plate
  revertant colonies per plate: 10
[4]; TA1538 − S9, 10 μg/plate
  revertant colonies per plate: 12
[5]
  mutagenic response in the Ames assay (in words): weak frameshift mutagen in TA1538 at 5 μg/plate in the presence of S9; also recorded: displayed mutation in the TA100 strain, but only in the absence of S9

## Cc1oc2c(C)c3oc(=O)cc(C)c3cc2c1COCCCN [Compound 4, 4′-(5-amino-2-oxa)pentyl-4,5′,8-trimethylpsoralen]
HIV-1; 32 μM, starting titer approximately 5 logs (Table 10)
  HIV Log Kill: 2.2 log
HIV-1; [9]
  HIV Log Kill: >3.6 log
R17 bacteriophage [2]; 16 μM, starting titer approx. 7.1 logs, 1 minute irradiation = 1.2 J/cm^2 (Table 8)
  R17 Log Kill: 2.3 log
R17 bacteriophage [2]; 32 μM, starting titer approx. 7.1 logs, 1 minute irradiation = 1.2 J/cm^2 (Table 8)
  R17 Log Kill: 4.3 log
R17 bacteriophage [2]; 64 μM, starting titer approx. 7.1 logs, 1 minute irradiation = 1.2 J/cm^2 (Table 8)
  R17 Log Kill: >6.1 log
[3]; TA100 + S9, 5 μg/plate
  revertant colonies per plate: −10
[3]; TA100 + S9, 10 μg/plate
  revertant colonies per plate: −3
[3]; TA100 − S9, 5 μg/plate
  revertant colonies per plate: −41
[3]; TA100 − S9, 10 μg/plate
  revertant colonies per plate: 3
[4]; TA1538 + S9, 5 μg/plate
  revertant colonies per plate: 7
[4]; TA1538 + S9, 10 μg/plate
  revertant colonies per plate: −2
[4]; TA1538 − S9, 5 μg/plate
  revertant colonies per plate: −2
[4]; TA1538 − S9, 10 μg/plate
  revertant colonies per plate: −2
[5]
  mutagenic response in the Ames assay (in words): no mutagenicity

## Cc1oc2c(C)c3oc(=O)cc(C)c3cc2c1CNCCCCCN [Compound 10, 4′-(7-amino-2-aza)heptyl-4,5′,8-trimethylpsoralen]
R17 bacteriophage [1]
  R17 inactivation efficiency compared with AMT (in words): more efficient at inactivating R17 than was AMT
HIV-1; [6]
  HIV Log Kill: 2.0 log
HIV-1; [7]
  HIV Log Kill: >3.5 log
HIV-1; [8]
  HIV Log Kill: >3.5 log

## Cc1oc2c(C)c3oc(=O)cc(C)c3cc2c1CNCCCNCCCCNCCCN [Compound 15, 4′-(14-amino-2,6,11-triaza)tetradecyl-4,5′,8-trimethylpsoralen]
R17 bacteriophage [1]
  R17 inactivation efficiency compared with AMT (in words): more efficient at inactivating R17 than was AMT
